The record followed here is patent US20130330358A1, “CRYSTAL STRUCTURE AND PEPTIDE INHIBITORS OF HAUSP DEUBIQUITINASE” (priority 2011, published 2013).

Test [1] has as its target T1, HAUSP TRAF domain HAUSP^62-205 (Homo sapiens, UniProt Q93009).
T1 construct: HAUSP^62-205, and HAUSP^62-560 were fused to a hexahistidine-tag2 and expressed in E. coli BL21 (DE3) RIPL cells; hexahistidine (cleaved yes); made in house; host or cells: E. coli BL21 (DE3) RIPL
Description: biochemical. The test is classed as binding. To be noted: ITC, 20° C.; read-out: Kd. On the procedure:
FIG. 5. Typical isothermal titration calorimetric measurements of the interactions between the HAUSP TRAF domain and the vIRF4 protein derivatives or other peptides. Purified proteins and synthesized peptides were reconstituted in 150 mM NaCl and 10 mM HEPES (pH 7.0). The calorimetric assays were performed using a VPITC system. All experiments were carried out with a stirring speed of 300 rpm at 20° C., and the thermal power was recorded every 10 s. Data were analyzed using the ORIGIN software package (version 7.0). […] Each titration against the HAUSP TRAF domain is indicated in each panel.
Purified proteins and synthesized peptides (Peptron Inc., Deajeon, Korea) were reconstituted in 150 mM NaCl and 10 mM HEPES (pH 7.0). The calorimetric assays were performed using a VP-ITC system (MicroCal Inc., Northampton, Mass.). Samples were degassed by vacuum aspiration for 15 min prior to loading. All experiments were carried out with a stirring speed of 300 rpm at 20° C., and the thermal power was recorded every 10 s. Data were analyzed using the ORIGIN software package (version 7.0) supplied with the instrument. […]

Test [2] has as its system MCF7 (MDMX amplification). Description: WST-1 cell growth assay, MCF7. Type of test: cell-based, human. The following applies: MCF7, 100 μM, compared with LnCap cells. (In general: Formazan colour is commonly taken as a measure of viable cells.)
Test [3] concerns the target T1, HAUSP TRAF domain HAUSP^62-205. Put plainly: Size exclusion chromatography, complex formation in 5-fold excess of MDM2^137-152. The following applies: in the presence of a 5-fold molar excess of MDM2 peptide. Type of test: binding. A general note: SEC sorts molecules by how far they enter the pores of the column.
Another test deals with T2, USP8 (Homo sapiens, UniProt P40818).
T2 sequence (P40818 1-1118): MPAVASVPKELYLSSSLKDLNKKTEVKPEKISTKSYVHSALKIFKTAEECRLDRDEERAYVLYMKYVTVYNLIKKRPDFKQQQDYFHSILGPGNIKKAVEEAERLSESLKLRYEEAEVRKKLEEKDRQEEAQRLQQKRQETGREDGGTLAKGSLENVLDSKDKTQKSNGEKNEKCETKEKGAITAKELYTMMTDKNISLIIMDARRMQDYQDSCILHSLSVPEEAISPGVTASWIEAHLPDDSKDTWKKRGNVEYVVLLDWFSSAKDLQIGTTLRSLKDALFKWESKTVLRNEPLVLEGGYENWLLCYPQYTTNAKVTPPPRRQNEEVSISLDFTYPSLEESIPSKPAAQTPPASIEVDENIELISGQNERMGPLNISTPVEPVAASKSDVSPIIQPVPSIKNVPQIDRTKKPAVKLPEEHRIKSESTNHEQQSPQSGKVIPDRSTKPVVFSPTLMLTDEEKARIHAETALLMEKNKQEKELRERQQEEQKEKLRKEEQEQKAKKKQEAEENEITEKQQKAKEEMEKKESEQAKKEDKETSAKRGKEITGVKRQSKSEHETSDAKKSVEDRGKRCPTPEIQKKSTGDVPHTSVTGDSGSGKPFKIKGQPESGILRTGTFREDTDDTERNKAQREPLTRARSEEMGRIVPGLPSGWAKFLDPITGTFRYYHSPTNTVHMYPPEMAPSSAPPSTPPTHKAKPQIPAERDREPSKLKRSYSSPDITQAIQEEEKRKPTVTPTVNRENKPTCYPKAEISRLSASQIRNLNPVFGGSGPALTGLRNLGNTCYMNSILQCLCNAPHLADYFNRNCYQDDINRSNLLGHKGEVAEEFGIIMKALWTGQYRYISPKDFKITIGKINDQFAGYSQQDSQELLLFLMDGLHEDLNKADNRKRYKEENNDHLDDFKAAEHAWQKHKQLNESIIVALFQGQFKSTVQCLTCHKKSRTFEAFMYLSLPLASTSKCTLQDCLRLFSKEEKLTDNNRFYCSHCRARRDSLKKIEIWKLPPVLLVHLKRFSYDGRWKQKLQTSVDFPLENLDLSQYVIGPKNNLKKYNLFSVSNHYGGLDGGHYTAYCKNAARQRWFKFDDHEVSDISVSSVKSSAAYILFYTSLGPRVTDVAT
The test is classed as biochemical. The following applies: 0.25 μM purified USP8 pre-mixed with peptide 5 min.

The target in test [4] is T3, HAUSP (Homo sapiens, UniProt Q93009). Put plainly: In vitro DUB assay, purified HAUSP with ubiquitinated MDM2 as substrate. The following applies: HAUSP preincubated with increasing amounts of peptide (FIG. 2f).
Test [5] has as its system p53 and its transcriptional targets p21 and MDM2. Description: Immunoblot of p53, MDM2, p21 and HAUSP levels in PEL cells. Type of test: cell-based, human. To be noted: FIG. 3d. The text has this:
The results were quantified as mean±s.d. of the combined results from three independent experiments; Data are mean±s. e. m.; n=200-300 cells from three independent experiments. *P<0.01 and **P<0.001. A Beckman Coulter Z2 Particle Count and size analyzer (BC Z2 CS analyzer) and trypan blue staining were used to determine cell death and for cell growth analysis. […] BrdU incorporation during the S phase is quantified as percentage of stained cells. […] Data are culled from 3 independent experiments. […] Apoptosis in VG1 cells was assessed at 48 h after treatment with 10 μM Nutlin-3a or 100 μM of each peptide by Annexin V/PI staining and measured by flow cytometry analysis. […] Numbers indicate the percentage of cells in each quadrant. […] VG1 and BJAB cells were treated with the same dose as used in (b) and (c) for 6 h and aliquots of cell lysates containing […] of protein were analyzed by IB with the indicated antibody. […] Tumors were measured by in vivo bioluminescence imaging. […] The results were quantified as mean±s.d. of the combined results from three independent experiments; Data are mean±s. e. m.; n=200-300 cells from three independent experiments. *P<0.05 and **P<0.01. […]

Test [6] has as its system SJSA-1 (MDM2 amplification). Description: WST-1 cell growth assay, SJSA-1. Type of test: cell-based, human. The following applies: SJSA-1, 100 μM, compared with LnCap cells.
The target in test [7] is T3, HAUSP. The following applies: time course, K48-Ub3-7 chains, 37° C. (FIG. 2e).

T3 sequence (Q93009 whole entry): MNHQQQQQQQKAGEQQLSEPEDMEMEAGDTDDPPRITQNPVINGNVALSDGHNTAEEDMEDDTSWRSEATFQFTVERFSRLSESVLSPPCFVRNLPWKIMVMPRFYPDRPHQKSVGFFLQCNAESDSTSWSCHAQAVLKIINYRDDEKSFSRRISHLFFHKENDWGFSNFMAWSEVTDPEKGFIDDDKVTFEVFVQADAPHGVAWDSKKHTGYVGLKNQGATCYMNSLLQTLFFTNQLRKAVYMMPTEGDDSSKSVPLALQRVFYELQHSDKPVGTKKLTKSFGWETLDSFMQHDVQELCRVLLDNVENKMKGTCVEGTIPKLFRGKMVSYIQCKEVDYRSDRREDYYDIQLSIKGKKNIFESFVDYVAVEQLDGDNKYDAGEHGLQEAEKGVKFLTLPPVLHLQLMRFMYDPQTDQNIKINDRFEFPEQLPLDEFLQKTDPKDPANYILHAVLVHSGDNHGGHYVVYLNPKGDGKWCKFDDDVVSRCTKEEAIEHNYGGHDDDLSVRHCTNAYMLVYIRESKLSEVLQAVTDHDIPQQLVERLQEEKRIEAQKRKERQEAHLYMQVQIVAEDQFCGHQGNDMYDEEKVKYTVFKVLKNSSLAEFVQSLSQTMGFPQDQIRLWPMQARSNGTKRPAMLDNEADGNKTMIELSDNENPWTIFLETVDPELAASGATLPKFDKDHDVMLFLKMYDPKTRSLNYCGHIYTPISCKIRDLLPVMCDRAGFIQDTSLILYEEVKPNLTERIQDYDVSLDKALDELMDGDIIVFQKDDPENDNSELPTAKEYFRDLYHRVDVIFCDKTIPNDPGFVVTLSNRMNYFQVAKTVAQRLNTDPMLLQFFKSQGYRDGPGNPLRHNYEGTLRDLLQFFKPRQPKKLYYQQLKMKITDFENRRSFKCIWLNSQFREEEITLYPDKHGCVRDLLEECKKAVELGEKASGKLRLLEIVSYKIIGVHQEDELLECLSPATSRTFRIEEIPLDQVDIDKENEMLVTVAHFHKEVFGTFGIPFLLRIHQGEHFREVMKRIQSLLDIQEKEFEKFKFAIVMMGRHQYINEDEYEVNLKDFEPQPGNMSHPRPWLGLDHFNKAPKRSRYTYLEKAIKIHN
T1 sequence (Q93009 62-205): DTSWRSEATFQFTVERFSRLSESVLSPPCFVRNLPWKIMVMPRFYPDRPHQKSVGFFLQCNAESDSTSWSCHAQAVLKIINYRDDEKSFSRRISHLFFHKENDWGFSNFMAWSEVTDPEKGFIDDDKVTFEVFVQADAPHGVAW

By Kd is commonly meant the constant that tells how readily two partners part at equilibrium. Consider `C[C@H](NC(=O)[C@@H]1CCCN1C(=O)CNC(=O)[C@H](CCC(N)=O)NC(=O)[C@@H](N)CCC(=O)O)C(=O)N[C@@H](CC(=O)O)C(=O)N[C@@H](CC(=O)O)C(=O)N1CCC[C@H]1C(=O)NCC(=O)N[C@@H](CCC(=O)O)C(=O)NCC(=O)N1CCC[C@H]1C(=O)N[C@@H](CO)C(=O)N[C@H](C(=O)NCC(=O)O)[C@@H](C)O` [EBNA1^435-449, reference compound], for which the Kd in test [1] stood at 480 ± 40 nM.
As to `CC[C@H](C)[C@H](NC(=O)[C@H](Cc1c[nH]c2ccccc12)NC(=O)[C@@H](NC(=O)[C@@H](N)CO)C(C)C)C(=O)N1CCC[C@H]1C(=O)N[C@H](C(=O)N[C@@H](CC(N)=O)C(=O)N[C@@H](CCC(=O)O)C(=O)NCC(=O)N[C@@H](C)C(=O)N[C@@H](CO)C(=O)N[C@H](C(=O)N[C@@H](CO)C(=O)NCC(=O)N[C@@H](CCSC)C(=O)O)[C@@H](C)O)C(C)C` [vIRF4^202-216], the cell growth inhibition result in test [2] and in test [6] was “did not show as robust a susceptibility” in each case. Also, the “complex formation with the HAUSP TRAF domain” value in test [3] was “formed a stable complex”. For the same compound, the “USP8 DUB activity” value on USP8 is on record as “neither vif1 peptide nor vif2 peptide was capable of inhibiting USP8 DUB activity”. In addition, the “HAUSP DUB activity against ubiquitinated MDM2” value at HAUSP [4] was “efficiently blocked HAUSP DUB activity”. Also, the HAUSP levels entry in test [5] is listed as “Neither vif1 nor vif2 peptide treatment altered HAUSP levels”. At HAUSP [7], the “HAUSP DUB activity, comparative kinetic analysis” value is reported as “weakly attenuated HAUSP DUB activity”.
As to TRQVTQASSFTWRVPG [vif2], the cell growth inhibition entry in test [2] and in test [6] was “did not show as robust a susceptibility” each time. For the same compound, the “USP8 DUB activity” value on USP8 is on record as “neither vif1 peptide nor vif2 peptide was capable of inhibiting USP8 DUB activity”. At HAUSP [4], the “HAUSP DUB activity against ubiquitinated MDM2” value was “efficiently blocked HAUSP enzymatic activity”. In test [5], the HAUSP levels entry is reported as “Neither vif1 nor vif2 peptide treatment altered HAUSP levels”. In addition, the “HAUSP DUB activity, comparative kinetic analysis” value at HAUSP [7] is “completely suppressed HAUSP DUB activity”.
